The values that follow are results of earlier work, collected in patent US20260262633A1, “BORDEAUX MIXTURE/ORGANOSULFUR FUNGICIDE NANO-SUSPENSION DISPERSION” (priority 2023, published 2026).

basic copper sulfate: the solubility in water is 1.06 µg/mL.
